# Measured values taken from patent US20210275521A1, “OXABICYCLOHEPTANES FOR TREATMENT OF SECONDARY ACUTE MYELOID LEUKEMIA” (Lixte Biotechnology, Inc., priority 2017, published 2021).
# pIC50: −log10 of the molar value.
# Tests used:
# SKM-1 = assay: MTT cytotoxicity assay, SKM-1 (sAML cell line); format: cell-based, human; conditions: for SKM-1 cell viability: 24h incubation
# Procedure: (§1) The following five human leukemia cell lines were obtained from the Shanghai Institute of Cell Biology (Shanghai, China): Kasumi-1, HL-60, THP-1, U937 and K562. The SICM-1 leukemia cell line was acquired from the Health Science Research Resources Bank (Osaka, Japan), established from a patient with MDS that had progressed to myelomonocytic leukemia.
# (§2) Cells were seeded into 96-well microtiter plates (Nunc, Roskilde, Denmark) at densities of either 1×10^5 cells/ml (established cell lines) or 5×10^5 cells/ml (primary AML cells). […] After exposure, 20 μl of 3-(4, 5-dimethylthiazol-2-yl)-2, 5-diphenylterazolium bromide solution (MTT, Sigma-Aldrich) was added to each well. The plates were then incubated for 4 h at 37° C. The MTT-containing solution was then aspirated away, 200 μI DMSO added to each well, and absorbance at 570 nm was measured.
# SKM-1 xenografts = assay: In vivo tumorigenicity assay, SKM-1 xenograft; design: species or system NOD/SCID mice; conditions: 2 mg/kg i.p. every other day for 14d, vs control
# Procedure: All animal studies were performed according to the guidelines of Animal Care and Use Committee of the First Affiliated Hospital of Zhejiang University and met the NIH guidelines for the care and use of laboratory animals. And all animal studies were approved by IACUC committee of the First Affiliated Hospital of Zhejiang University. Nonobese diabetic/severe combined immunodeficiency (NOD/SCID) mice aged 6 weeks were purchased from the Shanghai Experimental Animal Center of the Chinese Academy of Sciences (Shanghai, China). SKM-1 cells (5×106 in 100 μl PBS) were injected subcutaneously into the right flank of each mouse. By 10-14d, when the tumor volumes had reached 90-110 mm3, the mice were randomly divided into four groups: DNR LB100, DNR only, LB100 only, and control. Mice were injected intraperitoneally (i.p.) with 2 mg/kg DNR and/or 2 mg/kg LB100, every other day for a total of 14d. Control mice were injected with an equal volume of PBS. Tumor size was monitored every 3d based on caliper measurements of the two perpendicular diameters; tumor volume was calculated using the formula V=(width′×length×it/6).
# Kasumi-1 = assay: MTT cytotoxicity assay, Kasumi-1; format: cell-based; conditions: Homo sapiens; Kasumi-1, at 4 h after treatment
# Procedure: as §1
# (§3) Cells were seeded into 96-well microtiter plates (Nunc, Roskilde, Denmark) at densities of either 1×10^5 cells/ml (established cell lines) or 5×10^5 cells/ml (primary AML cells). Cultures were exposed to different drugs for 24 h. After exposure, 20 μl of 3-(4, 5-dimethylthiazol-2-yl)-2, 5-diphenylterazolium bromide solution (MTT, Sigma-Aldrich) was added to each well. The plates were then incubated for 4 h at 37° C. The MTT-containing solution was then aspirated away, 200 μI DMSO added to each well, and absorbance at 570 nm was measured.
# miR-181b-1 [1] = assay: MicroRNA microarray analysis; format: cell-based, human; conditions: SKM-1, exposure 12h
# From the text: Total RNA was extracted from SKM-1 and LB100-treated-SKM-1 cells using the RNeasy mini kit (Qiagen, Calif., USA) according to the manufacturer's instructions. The miRNA microarray analysis was done by KangChen (Shanghai, China).
# SKM-1 cells [2] = assay: Leukemia colony-forming assay; format: cell-based, human; conditions: 7 days in methylcellulose medium
# Procedure: LB100-treated SKM-1 cells were seeded in a methylcellulose medium and incubated for 7 d at 37° C. The number of leukemia colony-forming units (CFU-Ls) containing >50 cells were determined manually under a light microscope (Olympus).
# SKM-1 cells [3] = assay: Annexin V and propidium iodide flow-cytometry apoptosis assay; format: cell-based, human; conditions: for rate of apoptosis: LB100 10 μM 24 h
# Procedure: Cells were seeded into 6-well plates, and treated for 24h at 37° C. with different concentrations of LB100 (0, 1.25, 2.5, 5,10 μM). After washing with PBS, aliquots of the cells were resuspended in binding buffer, and stained with 5 μl Annexin V and 5 μl propidium iodide (Biouniquer, Nanjing, China) according to the manufacturer's instructions. Fluorescence-activated cell sorting (FACS) was then performed immediately after staining.
# Cells (5×10^5 cells/well) were pre-incubated for 3 h at 37° C. in the presence or absence of 20 KM of the pan-caspase inhibitor z-VAD-fmk (R&D Systems, MN, USA) in DMSO. Cells were then treated with LB100 for 24h, and processed in the Annexin V-binding assay as described above.
# miR-181b-1 [4] = assay: Quantitation of miR-181b-1 by real-time quantitative RT-PCR; format: cell-based, human; conditions: SKM-1, normalized to U6 RNA, vs control
# From the text: Total miRNA was extracted from 1×10^6 SKM-1 cells using the RNAiso kit for small RNA (TaKaRa, Japan), and reverse-transcribed using the One Step PrimeScript miRNA cDNA Synthesis Kit (TaKaRa, Japan). The resulting cDNA was quantified using the iCycler Real-time PCR Detection System (BioRad, Calif., USA) and SYBR Green (Takara, Japan). The expression of miR-181b-1 was quantified relative to the expression of human U6 small nuclear RNA using the 2-°° c.′ method.
# SKM-1 cells [5] = assay: Hoechst staining of nuclear morphology; format: cell-based, human; conditions: 24 h, varying doses
# Procedure: SKM-1 cells were treated with LB100 for 24 h. Cells were then permeabilized with 0.5% Triton X-100 for 30 min, washed with PBS, stained with 10 μg/ml Hoechst for 30 min, and washed with PBS. Nuclear morphology was observed immediately after using a BX51 fluorescence microscope (Olympus, Tokyo, Japan).
# SKM-1 cells [6] = assay: Cell cycle analysis by flow cytometry; format: cell-based, human; conditions: 12 h exposure at 5 μM
# Procedure: Cells were collected after being fixed overnight in 75% ethanol at −20° C. Fixed cells were washed twice with PBS, then incubated for 30 min with RNase A and propidium iodide (10 μg/ml). Cell cycle analysis was performed using a BDL SRII Flow Cytometer and FACSDiva Software (BD Bioscience, Franklin Lakes, USA). Raw data was analyzed using ModFit LT 3.2 software (Verity Software House, Topsham, USA).
# K562 = assay: MTT cytotoxicity assay, K562; format: cell-based; conditions: Homo sapiens; K562, at 4 h after treatment
# Procedure: as §1, §3
# U937 = assay: MTT cytotoxicity assay, U937; format: cell-based; conditions: Homo sapiens, U-937; U937, at 4 h after treatment
# Procedure: as §1, §2
# PP2A = biological target: T1, PP2A (Homo sapiens, UniProt P67775); assay: PP2A phosphatase activity assay in SKM-1 cells; format: cell-based; conditions: 10 μM LB100, SKM-1 cells
# T1 construct: endogenous in cells; host or cells: SKM-1 cells (lysate, immunoprecipitated with Millipore kit)
# Procedure: 1×IV SKM-1 cells were seeded into 6-well microtiter plates and treated with different concentrations of LB100 (0, 1.25, 2.5, 5, 10 μNI). […] Cell lysate was sonicated for 10 seconds and then centrifuged at 20,000 g for 15 minutes. Supernatant was then assayed with the PP2A Immunoprecipitation Phosphatase Assay Kit (Millipore, Mass., USA).
# THP-1 = assay: MTT cytotoxicity assay, THP-1; format: cell-based; conditions: Homo sapiens; THP-1, at 4 h after treatment
# Procedure: as §1, §2
# Bcl-2 = assay: Immunohistochemistry staining of SKM-1 xenograft for Bcl-2; design: species or system NOD/SCID mice; conditions: in-vivo
# Procedure: Immunohistochemical staining was performed on the paraffin-embedded sections. Tissue sections were dewaxed and rehydrated before performing antigen retrieval. Anti-BCL-2 (Cell Signaling Technology, MA, USA) were applied at 1:100 dilution in PBS to incubate slides overnight at 4° C., and incubated with an HRP-conjugated secondary antibody for 1 hat room temperature. DAB was used for color development, and dark brown staining was considered positive. All slides were photographed with optical microscopy Olympus BX51.
# SKM-1 cells [7] = assay: Western blotting of SKM-1 cells; format: cell-based, human
# Procedure: Cells were washed twice in PBS and lysed in 10 mM Tris, 1 mM ethylenediaminetetra-acetic acid (EDTA), 10 mM KCl, 0.3% Triton, and 0.1 mM phenylmethanesulfonyl fluoride (PMSF). Equal amounts of protein (30-50 μg) were separated on 8-12% SDS-polyacrylamide gels, and transferred to polyvinylidene fluoride (PVDF) membranes. Membranes were blocked with 5% non-fat milk and incubated overnight with the appropriate primary antibody at manufacturer-specified dilutions. Primary monoclonal antibodies were against I3-ACTIN (Santa Cruz Biotechnology, CA, USA); CDCl25C, p-CDCl25C, CDCl2, p-CDCl2, PP2A-A, PP2A-B, PP2A-C (Epitomics, USA); AKT, p-AKT, PARP, RAS, p-MEK, p-ERK, Raf, p-CamKII, Bc.1-2 and p-Bd-2 (Cell Signaling Technology, MA, USA).
# Next, the membranes were washed three times in TBS-T buffer (10 mm Tris-HCl, pH 8, 150 mm NaCl, 0.1% Tween 20), and incubated for 1 h with the corresponding horseradish peroxidase (HRP)-conjugated secondary antibody at 1:5,000 dilution. Bound secondary antibody was detected using an enhanced chemiluminescence (ECL) system (Pierce Biotechnology, IL, USA).
# HL-60 = assay: MTT cytotoxicity assay, HL-60; format: cell-based; conditions: Homo sapiens; HL-60, at 4 h after treatment
# Procedure: as §1, §2
# T1 sequence (P67775 whole entry): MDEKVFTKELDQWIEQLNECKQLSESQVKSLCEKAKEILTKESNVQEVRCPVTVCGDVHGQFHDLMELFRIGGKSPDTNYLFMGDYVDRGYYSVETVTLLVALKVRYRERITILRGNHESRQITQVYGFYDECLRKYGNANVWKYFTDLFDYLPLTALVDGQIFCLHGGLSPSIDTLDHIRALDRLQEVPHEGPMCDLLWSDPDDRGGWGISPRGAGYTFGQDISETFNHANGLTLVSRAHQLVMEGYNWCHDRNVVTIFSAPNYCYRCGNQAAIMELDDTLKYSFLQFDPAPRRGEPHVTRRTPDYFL
# T1 sequence (P30153 2-589 partner limits assumed): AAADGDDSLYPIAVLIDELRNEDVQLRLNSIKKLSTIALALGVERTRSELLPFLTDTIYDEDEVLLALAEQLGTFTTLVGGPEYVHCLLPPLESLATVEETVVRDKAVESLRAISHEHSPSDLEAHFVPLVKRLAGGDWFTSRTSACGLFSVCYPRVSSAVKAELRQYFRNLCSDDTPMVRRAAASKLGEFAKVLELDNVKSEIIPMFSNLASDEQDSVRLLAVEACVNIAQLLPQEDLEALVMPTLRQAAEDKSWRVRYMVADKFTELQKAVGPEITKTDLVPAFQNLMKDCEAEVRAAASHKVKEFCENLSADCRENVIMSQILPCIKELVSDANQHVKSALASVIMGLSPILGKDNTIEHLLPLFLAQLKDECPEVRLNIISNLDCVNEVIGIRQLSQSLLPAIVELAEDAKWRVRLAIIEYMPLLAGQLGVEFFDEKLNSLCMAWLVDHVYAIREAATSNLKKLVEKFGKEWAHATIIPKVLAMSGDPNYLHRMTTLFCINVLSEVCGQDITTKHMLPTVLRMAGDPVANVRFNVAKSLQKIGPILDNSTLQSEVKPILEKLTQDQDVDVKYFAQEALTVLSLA
compound,measurement,setting,value
"COc1cccc2c1C(=O)c1c(O)c3c(c(O)c1C2=O)C[C@@](O)(C(C)=O)C[C@@H]3O[C@H]1C[C@H](N)[C@H](O)[C@H](C)O1 [DNR, Daunorubicin, reference compound]",SKM-1 cell viability,SKM-1,significantly diminished in a dose-dependent manner
same,tumor volume,SKM-1 xenografts,sharp decrease
CN1CCN(C(=O)C2C(C(=O)O)[C@H]3CC[C@@H]2O3)CC1 (stereo partly drawn) [LB100],pIC50,Kasumi-1,5.36
same,miR-181b-1 in microRNA profiling,miR-181b-1 [1],significantly up-regulated
same,SKM-1 cell viability,SKM-1,significantly diminished in a dose-dependent manner
same,pIC50,"SKM-1; Homo sapiens, SKM-1, at 4 h after treatment",5.27
same,"growth of SKM-1 cells, colony formation",SKM-1 cells [2],dose-dependent inhibitory activity
same,fraction of apoptotic sAML cells,"SKM-1 cells [3]; 1.25 μM, 24h (3.13% in the absence of LB100)",8.51%
same,fraction of apoptotic sAML cells,"SKM-1 cells [3]; 2.5 μM, 24h",13.61%
same,fraction of apoptotic sAML cells,"SKM-1 cells [3]; 5 μM, 24h",37%
same,fraction of apoptotic sAML cells,"SKM-1 cells [3]; 10 μM, 24h",65.27%
same,rate of apoptosis,SKM-1 cells [3]; absence of z-VAD-FMK,62%
same,rate of apoptosis,SKM-1 cells [3]; presence of pan-caspase inhibitor z-VAD-FMK,16%
same,tumor volume,SKM-1 xenografts,sharp decrease
same,"relative expression of miR-181b-1, increase",miR-181b-1 [4],about 2 fold
same,nuclear morphology after Hoechst staining,SKM-1 cells [5],"increased amounts of condensed, pyknotic nudei"
same,G2/M phase cells,SKM-1 cells [6]; SKM-1 (13.4% before),31.5%
same,G0/G1 phase cells,SKM-1 cells [6]; SKM-1 (36.7% before),9.8%
same,pIC50,K562,5.15
same,pIC50,U937,5.46
same,reduction of the activity of PP2A,PP2A,up to 60%
same,pIC50,THP-1,4.87
same,"Bcl-2 expression, immunohistochemistry",Bcl-2,markedly downregulated
same,CDCl2 and CDCl25C total- and phosphorylated-protein levels,"SKM-1 cells [7]; 5 μM LB100, SKM-1",markedly downregulated
same,phosphorylated Bcl-2 and CamKII,SKM-1 cells [7]; after LB100 administration,increased
same,caspase-3 and PARP cleavage,"SKM-1 cells [7]; immunoblotting, 24h exposure, SKM-1",cleavage in a concentration-dependent manner
same,"Bcl-2 expression, immunoblot","SKM-1 cells [7]; in-vitro, SKM-1, 5 μM LB100",markedly downregulated
same,"expression of the three PP2A subunits (PP2A-A, PP2A-B, PP2A-C)","SKM-1 cells [7]; western blot, 5 μM LB100 for 12 h",moderately decreased
same,levels of p-AKT,"SKM-1 cells [7]; western blot, sAML cells",increased
same,pIC50,HL-60,5.47
